Reference: patent US4954491A, “Method of treatment using 18-cyanoprogesterone derivatives” (Merrell Dow Pharmaceuticals Inc., priority 1989, dated 1990)

Legend:
[1] = tested on: enzymes in the synthesis of aldosterone; assay: inhibition of enzymes in the synthesis of aldosterone (rat adrenal capsule/glomerulosa homogenates, [3H]-DOC substrate); assay type: biochemical, Sprague-Dawley rats; conditions: Conc 10 μM, 1 μM [3H]-DOC, 10-minute assay, 25° C., pH 7.4; for f moles/min/mg: buffer control 246
Protocol: Young male Sprague-Dawley rats were maintained on a sodium-deficient diet for about two weeks prior to use. From these animals, adrenal capsule/glomerulose homogenates were prepared (6 mg/ml) in pH 7.4 assay buffer [MgCl2 8.5 mM, CaCl2 2.7 mM, KCl 3.13 mM, NaCl 7.591 mM, TRIS 50 mM and 0.1% triethylamine]and centrifuged 500xg for 10 minutes.
Assays were conducted in 35 ml glass tubes maintained at 25° C. in a Dubnoff shaker with 95% O2 /5% CO2. The tubes contained the following material: 100 μl of an NADPH^+ generating system, 300 μl of adrenal capsular/glomerulosa cytosol, and 50 μl of test compound or buffer (control). After initial preincubation intervals of 20 minutes, the 10-minute assay was started by the addition of 50 μl of tritium-labelled substrate, i.e., 1 μM [^3 H]-DOC. Reactions were quenched by the addition of 5 ml of ethyl acetate and non-radiolabelled steroids were also added. The samples were extracted twice with 5 ml of ethyl acetate and the solvent evaporated under nitrogen at 30°-40° C.
Residues were redissolved in methanol:water (40:60) with 0.1% triethylamine and high performance liquid chromatography was used to separate products on a Cl8 reverse phase (5 μ ODS-Hypersil) column (4.6×250 mm, Shannon) with a 1 ml/min flow rate using an MeOH:H2 O gradient (solvent A 10/90:solvent B 90/10).
Unchanged substrate and products formed were monitored by UV absorbance at 246 nm and the amount of steroid compound present was quantified by [^3 H]radioactivity. Using this procedure, the following results were observed: […]

rabbits [2] = conditions: Auel et al.; cited from earlier work
rabbits [3] = conditions: Auel et al.; cited from earlier work; remark: listed apart in the source

SMILES | % Inhibition [1] [%] | f moles/min/mg [1] [f moles/min/mg] | pharmacological activity in the anti-Clauberg test (rabbits [2]) | pharmacological activity in the Clauberg test (rabbits [3])
CC(=O)[C@H]1CC[C@H]2[C@@H]3CCC4=CC(=O)CC[C@]4(C)[C@H]3CC[C@]12CC#N [3,20-Dioxopregn-4-ene-18-carbonitrile] | 52.5 | 117 | inactive | inactive
CC(=O)[C@H]1CC[C@H]2[C@@H]3CCC4=CC(=O)CC[C@]4(C)[C@H]3[C@@H](O)C[C@]12CC#N [11β-Hydroxy-3,20-dioxopregn-4-ene-18-carbonitrile] | 33.3 | 164 |  | 
